Experiments:
[1] = tested on: CD36+ erythroid progenitors from cord blood; test: Toxicity of KPT on CD36+ erythroid progenitors, normal EPO; assay type: cell-based, human; settings: day 6 (D6) of culture; 33 nM, 100 nM, 333 nM and 1000 nM; normal concentrations of EPO; until 20 h of treatment
Protocol: FIG. 3A. KPT is not toxic for CD36+ erythroid progenitors from cord blood at day 6 (D6) of culture, when diluted at concentrations 33 nM, 100 nM, 333 nM and 1000 nM in CD36+ culture media, with normal concentrations of erythropoietin (EPO), until 20 h of treatment.
(§1) Umbilical cord blood units from normal full-term deliveries were obtained, after informed mother's consent, from the Obstetrics Unit of Hôpital Necker-Enfants Malades. CD36+ erythroid progenitors, generated from 7 days IL-6+IL3+SCF− cultured CD34 progenitors isolated from cord blood (Miltenyi CD34 Progenitor Cell Isolation Kit), were cultured in the presence of IL3+SCF+Epo in IMDM (Gibco cell culture) supplemented with 15% BIT 9500 (Stem Cell Technologies).

[2] = tested on: CD36+D6 erythroid progenitors from cord blood; test: Cell death of CD36+D6 cells during EPO starvation; assay type: cell-based, human; settings: EPO starvation during 20 h (80% of cell death without KPT)
Protocol: FIG. 3B. EPO starvation during 20 h results in 80% of cell death. Treatment of CD36+D6 with KPT at 100 nM, 333 nM during EPO starvation decreases cell death, of 49% and 39% respectively, compared to the absence of KPT treatment.
as §1

[3] = tested on: HSP70 nuclear retention in CD36+D6 from cord blood; test: HSP70 nuclear retention in cord blood CD36+D6 under EPO starvation; assay type: cell-based, human; settings: after 20 h of treatment
Protocol: as §1
5·10^4 cells were spin on slides, acetone fixated, hydrated with cold 1×PBS 1% BSA for 30 minutes, treated with formaldehyde for 15 min (Sigma), then with methanol (Prolabo) for 10 minutes at room temperature. Cells were then permeabilized with 1×PBS 0.2% triton X100 (Sigma) for 10 min at 4° C., washed and incubated in 10% BSA for 30 minutes. They were then sequentially incubated with antibodies diluted in 1×PBS 1% BSA 0.1% tween (Sigma). Nuclei were stained with DAPI and slides were examined with a confocal laser microscope (LSM 700 Carl Zeiss).

[4] = tested on: CD36+ cells derived from circulating CD34+ cells from Beta thalassemia major patient; test: Proliferation, cell death and terminal maturation of beta-thalassemia CD36+ cells; assay type: cell-based, human
Protocol: FIG. 6. CD36+ cells, derived from circulating CD34+ cells from Beta thalassemia major patient, were treated or not with KPT molecule (KPT 0=DMSO, KPT 100=100 nM, KPT 1000=1000 nM), and analysed at 24 h, 48 h, 72 h and 96 h of treatment. Day 0 of treatment corresponds to day 5 of CD36+ culture. a) Proliferation of CD36+ cells between 24 h and 96 h, for the different conditions of KPT treatment. b) Cell death of CD36+ cells between 48 h and 96 h, for the different conditions of KPT treatment. c) Flow cytometry analysis of Mean fluorescence intensity (MFI) for Band 3 protein, in CD36+ cells, in the different conditions of KPT treatment. d) MGG count of immature, polychromatophiles and acidophiles+reticulocytes at 96 h of treatment, for the different conditions of KPT treatment and e) corresponding maturation indexes.
FIG. 7: CD36+ cells, derived from circulating CD34+ cells from Beta thalassemia major patient, were treated or not with KPT molecule (KPT 0=DMSO, KPT 100=100 nM, KPT 1000=1000 nM), and analysed at 24 h, 48 h, and 72 h of treatment. Day 0 of treatment corresponds to day 6 of CD36+ culture. a) Proliferation of CD36+ cells between 24 h and 72 h, for the different conditions of KPT treatment. b) Cell death of CD36+ cells between 24 h and 72 h, for the different conditions of KPT treatment. c) Flow cytometry analysis of MFI for Band 3 protein, in CD36+ cells, in the different conditions of KPT treatment. d) Flow cytometry analysis of the number of small, alive, CD36+ cells positive for fœtal haemoglobin in the different conditions of KPT treatment. e) MGG count of immature, polychromatophiles and acidophiles+reticulocytes at 48 h of treatment, for the different conditions KPT 0 and KPT 100 nM and f) corresponding maturation indexes.
(§2) Data from FIG. 6 and FIG. 7 are from two different experiments on CD36+ cells from a beta-thalassemia patient. Data from FIG. 8 have been performed with cells from FIG. 7 experiment. Beta-thalassemia erythroblasts were generated in vitro from peripheral blood circulating CD34+ cells from an adult patient with beta-thalassemia major (β^0-TM). This study was performed according to the Helsinky Declaration with approval from the ethics committee of our institution.
In vitro, maturation is arrested at the polychromatophilic stage in beta-thalassemia erythroid progenitors. To quantify the maturation arrest in beta-thalassemia cells, we use an index of terminal maturation as the number (acidophilic cells+reticulocytes per slide)*100 divided by the number of polychromatophilic cells per slide (Arlet J b et al. Nature oct 2014).

[5] = tested on: HSP70 nuclear localization in beta-thalassemia CD36+ cells; test: HSP70 localization and GATA1 fluorescence in beta-thalassemia CD36+ cells; assay type: cell-based, human
Protocol: FIG. 8. CD36+ cells from the same experiment as FIG. […] Percentages of cells containing HSP70 located in the nucleus (black) or in the cytoplasm (grey), gated on the total population of cells analyzed, for the different treatment conditions: KPT 0 (a), KPT 100 nM (b) and KPT 1000 nM (c). d) HSP70 cytoplasm/nuclear ratio for the three treatment conditions e) Mean intensity and standard deviation for GATA1 transcription factor fluorescence.
as §2
Amnis Technology enables to analyse fluorescence localization in a large number of cells beforehand labelled. Here we show the percentage of cells positive for HSP70 labelling in the nucleus, or in the cytoplasm, for conditions KPT 0, 100 nM and 1000 nM (FIG. 8). We can observe that the fraction of cells positive for HSP70 in the nucleus increases in KPT 100 nM and 1000 nM conditions (FIGS. 8b and 8c), compared to KPT 0 (FIG. 8a).

XPO1 = XPO1 (Homo sapiens, UniProt O14980); settings: cited from earlier work
XPO1, sequence (O14980 whole entry): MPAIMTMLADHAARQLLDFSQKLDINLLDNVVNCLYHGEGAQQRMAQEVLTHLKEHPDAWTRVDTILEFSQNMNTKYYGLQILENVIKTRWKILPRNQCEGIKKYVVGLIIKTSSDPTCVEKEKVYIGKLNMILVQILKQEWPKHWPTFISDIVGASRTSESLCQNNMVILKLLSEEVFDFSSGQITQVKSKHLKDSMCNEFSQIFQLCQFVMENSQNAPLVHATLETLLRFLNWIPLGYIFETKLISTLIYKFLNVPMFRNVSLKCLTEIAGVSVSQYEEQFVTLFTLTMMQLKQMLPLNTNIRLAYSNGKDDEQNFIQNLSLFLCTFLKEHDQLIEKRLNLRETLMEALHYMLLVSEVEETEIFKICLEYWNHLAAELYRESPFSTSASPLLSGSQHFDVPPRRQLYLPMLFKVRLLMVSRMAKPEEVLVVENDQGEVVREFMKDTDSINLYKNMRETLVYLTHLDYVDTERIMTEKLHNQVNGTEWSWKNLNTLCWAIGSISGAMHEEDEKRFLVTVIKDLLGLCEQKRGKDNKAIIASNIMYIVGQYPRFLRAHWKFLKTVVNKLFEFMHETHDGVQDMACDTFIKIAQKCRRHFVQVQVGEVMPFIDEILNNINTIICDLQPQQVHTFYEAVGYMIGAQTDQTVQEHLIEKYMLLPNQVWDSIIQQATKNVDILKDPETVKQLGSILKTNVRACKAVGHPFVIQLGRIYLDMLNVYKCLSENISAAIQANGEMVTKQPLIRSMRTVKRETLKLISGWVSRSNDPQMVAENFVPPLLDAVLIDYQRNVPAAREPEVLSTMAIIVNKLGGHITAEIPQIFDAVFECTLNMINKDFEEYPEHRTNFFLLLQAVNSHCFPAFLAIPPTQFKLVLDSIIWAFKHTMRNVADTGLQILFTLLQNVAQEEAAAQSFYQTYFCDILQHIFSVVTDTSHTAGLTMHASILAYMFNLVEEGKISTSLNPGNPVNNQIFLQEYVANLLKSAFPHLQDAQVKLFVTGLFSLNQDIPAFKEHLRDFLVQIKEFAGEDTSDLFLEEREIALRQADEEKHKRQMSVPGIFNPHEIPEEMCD

Question: For `FC(F)(F)c1cc(-c2ncn(/C=C\c3nnco3)n2)cc(C(F)(F)F)c1` [KPT], which “toxicity for CD36+ erythroid progenitors” value [1] is on record?
Answer: not toxic

Question: What about the “decrease of cell death compared to the absence of KPT treatment” value ([2]; KPT 100 nM) of the same compound?
Answer: 49%

Question: And the “decrease of cell death compared to the absence of KPT treatment” value ([2]; KPT 333 nM)?
Answer: 39%

Question: And the HSP70 nuclear retention [3]?
Answer: induces HSP70 nuclear retention

Question: What about the “proportion of HbF positive among the population of small alive cells” value ([4]; 72 hours of treatment with 1000 nM, compared to KPT 0 and KPT 100 nM) of the same compound?
Answer: higher

Question: And the “maturation index (acidophilic cells+reticulocytes)*100 / polychromatophilic cells” value ([4]; KPT 100 nM and 1000 nM compared to control condition KPT 0)?
Answer: increases

Question: What about the “mean fluorescence intensity (MFI) of Band 3 protein labelling” value ([4]; KPT 100 nM or 1000 nM, at 96 h of treatment (FIG. 6c) and at 72 h of treatment (FIG. 7c), flow cytometry) of the same compound?
Answer: increases

Question: And the “cytotoxicity (cell death of CD36+ cells)” value ([4]; KPT 1000 nM compared to KPT 0 and KPT 100 nM)?
Answer: little cytotoxicity

Question: And the “proliferation of CD36+ cells” value ([4]; KPT 1000 nM compared to KPT 0 and KPT 100 nM, only in the experiment with high proliferation rate in control condition)?
Answer: decreased proliferation

Question: And the HSP70 cyto/nuclear fraction ([5]; KPT 100 nM and 1000 nM compared to KPT 0, 24 h of treatment)?
Answer: decrease

Question: And the “fraction of cells positive for HSP70 in the nucleus” value ([5]; KPT 100 nM and 1000 nM compared to KPT 0, 24 h of treatment, Amnis)?
Answer: increases

Question: And the “mean of fluorescence intensity of GATA1 labelling” value ([5]; KPT treatment conditions of FIG. 8, 24 h of treatment)?
Answer: increase

Question: And the HSP70 nuclear localization ([5]; beta-thalassemia CD36+D8 cells, 72 h of treatment at 100 nM, compared to non treated cells)?
Answer: induces HSP70 nuclear localization

Question: For `CCC(=C/[C@H](C)C/C=C/C(C)=C/[C@@H](C)C(=O)[C@@H](C)[C@H](O)[C@@H](C)C/C(C)=C/C(=O)O)/C=C/[C@@H]1OC(=O)C=C[C@@H]1C` [Leptomycin B], which “HSP70 nuclear retention in erythroid precursor cells” value (XPO1) is on record?
Answer: induces HSP70 nuclear retention
